Measured values as given in ChEMBL document CHEMBL5154761, “Design, synthesis, and evaluation of 9-(pyrimidin-2-yl)-9H-carbazole derivatives disrupting mitochondrial homeostasis in human lung adenocarcinoma” (Eur J Med Chem, 2022).
Calls of active or inactive are those of the source. The rule behind the calls is not given here.

Experiments:
[1] = test system: A549; test: Cytotoxicity against human A549 cells assessed as cell growth inhibition at 10 uM incubated for 48 hrs by MTT assay relative to control; assay type: functional
[2] = test system: A549; test: Cytotoxicity against human A549 cells assessed as cell growth inhibition incubated for 48 hrs by MTT assay; assay type: functional, cell-based; conditions: A549, 48 h
[3] = test system: A549; test: Induction of cell cycle arrest in human A549 cells assessed as accumulation at G2/M phase at 10 uM incubated for 48 hrs by PI staining based flow cytometry analysis; assay type: functional

SMILES	inhibition at 10 µM [1] [%]	IC50 [2] [µM]	Activity [3]
O=C(c1ccc(O)c(O)c1)c1cccc2c3ccccc3n(-c3ncccn3)c12	50	8.86	
O=C(c1ccc(C(F)(F)F)cc1)c1cccc2c3ccccc3n(-c3ncccn3)c12	50	15.6	Active
O=C(c1ccco1)c1cccc2c3ccccc3n(-c3ncccn3)c12	50	14.9	Active
